This assay deals with pigeons. Put plainly: Third repellency test 3.3, compared with pigeons offered untreated seeds in parallel at Day 0. It is filed as in vivo. From the text:
The test procedure was however slightly changed compared to the trials in Examples 3.1 and 3.2. Indeed, instead of simply comparing the effect of the tested compositions against the untreated seeds offered to the pigeons at Day-1, here a set of the pigeons was also offered untreated seeds at Day 0 in parallel to the set of pigeons being offered the seeds treated with a composition. The results for the set of pigeons having received the treated seeds are therefore compared to the results for the set of pigeons having received the untreated seeds in parallel at Day 0 (instead of the results for the set of the pigeons having received the untreated seeds at Day-1). Two trials under this setting have been performed with different compositions.
Trial 1: • Black pepper at the dose of 40.5 ml/50000 corn seeds • Garlic at the dose of 4.5 ml/50000 corn seeds • Mixture of Black pepper (90%) and garlic (10%) at the dose of 45 ml/50000 corn seeds
Trial 2: • Black pepper at the dose of 40.5 ml/50000 corn seeds • Garlic at the dose of 4.5 ml/50000 corn seeds • Mixture of Black pepper (90%) and garlic (10%) at the dose of 45 ml/50000 corn seeds • Thiram at the dose of 45 ml/50000 corn seeds

SMILES strings stand for the structures.

Consider `CN(C)C(=S)SSC(=S)N(C)C` [Thiram], for which, under “Trial 2, 45 ml per 50000 maize seeds”, the “Percentage (%) of reduction of feed consumption” value is given as 65%. Besides, the “Repellency effect on seed consumption, in words” value (test 3.3, doses of Table 4) is listed as “good repellency effect on seed consumption”.

These data come from patent US20220022465A1, “METHODS AND COMPOSITIONS FOR REPELLING BIRDS IN CROP PLANTS” (Bayer Aktiengesellschaft, priority 2019, published 2022).
